Data reported in PubChem BioAssay (NCI).
“And” between values parts separate entries of the source, which are not always exact repeats. Equal values may be shown once.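 96-well plates; 48 h exposure; 5 concentrations. Endpoints by linear interpolation between flanking doses. Not reached: highest tested concentration assigned. Abbreviation: GI50, concentration required for 50% inhibition of growth. Definition used: TGI = concentration required for complete inhibition of growth.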

Tests used:
Assay in all cases: growth of human tumour cells (NCI), 48 h
UO-31 renal = tested on: UO-31 renal
MCF7 breast = tested on: MCF7 breast
HCT-15 colon = tested on: HCT-15 colon
SNB-19 CNS = tested on: SNB-19 CNS
UACC-62 melanoma = tested on: UACC-62 melanoma
SN12C renal = tested on: SN12C renal
OVCAR-5 ovarian = tested on: OVCAR-5 ovarian
786-0 renal = tested on: 786-0 renal
SR leukemia = tested on: SR leukemia
LOX IMVI melanoma = tested on: LOX IMVI melanoma

SMILES	GI50 (UO-31 renal)	TGI (UO-31 renal)	GI50 (MCF7 breast) [µM]	TGI (MCF7 breast)	GI50 (HCT-15 colon) [µM]	GI50 (SNB-19 CNS)	TGI (SNB-19 CNS)	GI50 (UACC-62 melanoma) [µM]	TGI (UACC-62 melanoma) [µM]	GI50 (SN12C renal) [µM]	TGI (SN12C renal) [µM]	GI50 (OVCAR-5 ovarian) [µM]	TGI (OVCAR-5 ovarian) [µM]	GI50 (786-0 renal)	TGI (786-0 renal) [µM]	GI50 (SR leukemia) [µM]	TGI (SR leukemia) [µM]	GI50 (LOX IMVI melanoma) [µM]	TGI (LOX IMVI melanoma) [µM]	TGI (HCT-15 colon)
COc1ccn2c(C(C)=O)cc(C(=O)c3ccc4c(c3)Sc3ccccc3N4)c2c1	0.476 µM	> 100 µM	0.0893	> 100 µM	0.0982	0.158 µM	> 100 µM	0.0894	> 100	0.33	> 100	0.229	> 100	0.145 µM	55.1	0.0567	> 100	0.15	> 100	–
Nc1ncnc2c1ncn2CC(O)C(=O)O (stereo not given)	–	> 100 µM	–	> 100 µM	–	–	> 100 µM	–	> 100	–	> 100	–	> 100	–	> 100	–	> 100	–	> 100	> 100 µM
COc1ccc(-c2cc(-c3ccccc3)nc(N3CCN(CCNc4ccnc5cc(Cl)ccc45)CC3)n2)cc1	1.4 µM	3.37 µM	1.71	3.45 µM	1.4	3.19 µM	13.2 µM	3.48	11.2	1.64	3.34	1.92	4.99	1.52 µM	2.94	0.31	> 100	1.76	3.24	3.14 µM
COc1ccc(-c2cnnn2-c2cc(OC)c3c(c2)OCO3)cc1	1.1 µM	> 100 µM	0.0463	> 100 µM	0.0481	–	> 100 µM	0.235	> 100	0.658	> 100	0.502	> 100	0.544 µM	> 36.6	0.0466	> 51.7	0.491	> 100	> 100 µM
CCc1ccccc1N1CCN(C(=O)c2cc(OC)c(OC)c(OC)c2)CC1	–	63.4 µM	–	35 µM	–	–	> 56 µM	–	> 68.8	–	> 100	–	> 100	–	> 100	–	> 55.1	–	29.3	> 23.6 µM
COC(C(=O)C(O)C(C)O)C1Cc2cc3cc(OC4CC(OC(C)=O)C(OC5CC(O)C(OC)C(C)O5)C(C)O4)cc(O)c3c(O)c2C(=O)C1OC1CC(OC2CC(OC3CC(C)(O)C(OC(=O)C(C)C)C(C)O3)C(O)C(C)O2)C(O)C(C)O1 (stereo not given)	0.399 µM and 0.46 µM	4.1 µM and 5.22 µM	0.0465	0.327 µM and < 0.215 µM	0.455	0.0897 µM and 0.01 µM	53.9 µM and > 100 µM	0.00129	–	–	–	–	–	0.0763 µM and 0.0168 µM	0.826	–	0.385	–	–	22.4 µM and 34.5 µM
CN(C)c1ccc(-c2cc(-c3ccc(Nc4nc(Nc5ccccc5)nc(Nc5ccc(Cl)cc5)n4)cc3)nc(N)n2)cc1	2.69 µM	> 100 µM	2.84	15 µM	4.26	13.5 µM	69.2 µM	6.26	40	7.52	42.2	16.1	91.5	6.32 µM	46	1.39	5.02	5.03	46.2	> 100 µM
